Tested on: Plasmodium berghei
Test: Luciferase/luciferin-expressing antifolate-resistant parasites were used to infect a culture of HepG2 cells that were pre-incubated with compounds. Infected hepatocytes emit light due to the luciferase reaction. Assay results are presented as the percent inhibition of light emission compared to control. […]
Format: functional
Conditions: sporozoite; for IC90: read-out: LUCIFERASE INFECTION ASSAY - IC90

Structure (SMILES)	IC90	further results
Cc1ccc(S(=O)(=O)n2c3ccc(Cl)cc3c3nc(C)sc32)cc1	> 8.76 µM	IC50 (FFLUC_HILL_SLOPE 13.1, FFLUC_R_SQUARED 0.689, read-out: LUCIFERASE INFECTION ASSAY - IC50): > 8.76 µM
COc1ccc(-c2cc(NC=O)c3ncc(-c4cc(OC)c(OC)c(OC)c4)n3c2)c(OC)c1	5.96 µM	IC50 (FFLUC_HILL_SLOPE 13.2, FFLUC_R_SQUARED 0.535, HEPG2TOX_HILL_SLOPE 2.06, HEPG2TOX_R_SQUARED 0.871, PBLUC_HILL_SLOPE 2.04, PBLUC_R_SQUARED 0.466, read-out: LUCIFERASE INFECTION ASSAY - IC50): 2.03 µM
O=C(Nc1nc2ccccc2[nH]1)c1ccccn1	> 10 µM	IC50 (FFLUC_HILL_SLOPE 12.7, FFLUC_R_SQUARED 0.6, read-out: LUCIFERASE INFECTION ASSAY - IC50): > 10 µM
Cc1cc(NC(=O)Cn2ncc(Br)c(Br)c2=O)n(C)n1	> 10 µM	IC50 (FFLUC_HILL_SLOPE 13, FFLUC_R_SQUARED 0.376, HEPG2TOX_HILL_SLOPE 25.8, HEPG2TOX_R_SQUARED 0.794, PBLUC_HILL_SLOPE 3.09, PBLUC_R_SQUARED 0.556, read-out: LUCIFERASE INFECTION ASSAY - IC50): 5.35 µM
Nc1c(NCCO)cc(NC2CCCCC2)c2c1C(=O)c1ccccc1C2=O	> 8.7 µM	IC50 (FFLUC_HILL_SLOPE 12.9, FFLUC_R_SQUARED 0.405, PBLUC_HILL_SLOPE 2.49, PBLUC_R_SQUARED 0.563, read-out: LUCIFERASE INFECTION ASSAY - IC50): > 8.7 µM
CCCCCCOCC[N+](C)(CCOCCCCCC)CCOCCCCCC	1.08 µM	IC50 (FFLUC_HILL_SLOPE 13.1, FFLUC_R_SQUARED 0.46, HEPG2TOX_HILL_SLOPE 1.63, HEPG2TOX_R_SQUARED 0.995, PBLUC_HILL_SLOPE 15.2, PBLUC_R_SQUARED 0.558, read-out: LUCIFERASE INFECTION ASSAY - IC50): 0.933 µM
CC1CCN(S(=O)(=O)c2ccc(C(=O)NCc3cccc(C(F)(F)F)c3)cc2)CC1	> 10 µM	IC50 (FFLUC_HILL_SLOPE 13.2, FFLUC_R_SQUARED 0.207, read-out: LUCIFERASE INFECTION ASSAY - IC50): > 10 µM
Fc1ccc(N2c3cc(F)ccc3N=C(c3ccccc3)C2c2ccccc2)cc1 (configuration not stated)	> 8.32 µM	IC50 (FFLUC_HILL_SLOPE 13.2, FFLUC_R_SQUARED 0.317, HEPG2TOX_HILL_SLOPE 1.35, HEPG2TOX_R_SQUARED 0.526, PBLUC_HILL_SLOPE 1.66, PBLUC_R_SQUARED 0.328, read-out: LUCIFERASE INFECTION ASSAY - IC50): 5.47 µM
COc1ccc(C2=Cc3nc4ccccc4n3C3(C(F)(F)F)OC(c4ccccc4)=NN23)cc1 (configuration not stated)	> 10 µM	IC50 (FFLUC_HILL_SLOPE 13.2, FFLUC_R_SQUARED 0.193, HEPG2TOX_HILL_SLOPE 11.1, HEPG2TOX_R_SQUARED 0.974, PBLUC_HILL_SLOPE 14.1, PBLUC_R_SQUARED 0.236, read-out: LUCIFERASE INFECTION ASSAY - IC50): 9.44 µM
N#Cc1c(Cl)nsc1NCc1cnn(Cc2ccccc2)c1	1.22 µM	IC50 (FFLUC_HILL_SLOPE 12.9, FFLUC_R_SQUARED 0.244, HEPG2TOX_HILL_SLOPE 2.27, HEPG2TOX_R_SQUARED 0.949, PBLUC_HILL_SLOPE 20.5, PBLUC_R_SQUARED 0.627, read-out: LUCIFERASE INFECTION ASSAY - IC50): 1.1 µM
CC(C)(C)NS(=O)(=O)c1cccc2c(N)cccc12	5.45 µM	IC50 (FFLUC_HILL_SLOPE 12.8, FFLUC_R_SQUARED 0.416, HEPG2TOX_HILL_SLOPE 12.3, HEPG2TOX_R_SQUARED 0.393, PBLUC_HILL_SLOPE 11.3, PBLUC_R_SQUARED 0.345, read-out: LUCIFERASE INFECTION ASSAY - IC50): 4.49 µM
C=C(C)C/N=c1\scc(-c2ccc(OC)cc2OC)n1/N=C(\C)c1ccc(OC)cc1	> 10 µM	IC50 (FFLUC_HILL_SLOPE 13, FFLUC_R_SQUARED 0.36, read-out: LUCIFERASE INFECTION ASSAY - IC50): > 10 µM
CCOC(=O)c1c(CC(C)C)csc1NC(=O)CNc1ccc(-n2cnnn2)cc1	> 10 µM	IC50 (FFLUC_HILL_SLOPE 13, FFLUC_R_SQUARED 0.249, read-out: LUCIFERASE INFECTION ASSAY - IC50): > 10 µM
C=C1N(C)c2ccc(NC(=O)c3ccccc3)cc2C1(C)C	3.46 µM	IC50 (FFLUC_HILL_SLOPE 13, FFLUC_R_SQUARED 0.522, HEPG2TOX_HILL_SLOPE 2.51, HEPG2TOX_R_SQUARED 0.97, PBLUC_HILL_SLOPE 14.6, PBLUC_R_SQUARED 0.431, read-out: LUCIFERASE INFECTION ASSAY - IC50): 2.98 µM
COC(=O)c1ccc(C(=O)OC)c(N2C(=O)C=CC2=O)c1	> 11.4 µM	IC50 (FFLUC_HILL_SLOPE 12.8, FFLUC_R_SQUARED 0.0109, PBLUC_HILL_SLOPE 0.51, PBLUC_R_SQUARED 0.565, read-out: LUCIFERASE INFECTION ASSAY - IC50): 0.503 µM
COc1cccc(-c2[nH]nc3ccnc(-c4ccc(C(C)C)cc4)c23)c1	> 10 µM	IC50 (FFLUC_HILL_SLOPE 13.2, FFLUC_R_SQUARED 0.418, read-out: LUCIFERASE INFECTION ASSAY - IC50): > 10 µM

Structure (SMILES)	IC90	further results
CC(=O)N(c1nn(CN(C2CC2)C2CCS(=O)(=O)C2)c(=S)s1)C1CC1 (configuration not stated)	> 10 µM	IC50 (FFLUC_HILL_SLOPE 12.8, FFLUC_R_SQUARED 0.42, read-out: LUCIFERASE INFECTION ASSAY - IC50): > 10 µM
COc1ccc(-c2nc3ccccc3n2-c2cc(-c3ccccc3)nn2-c2ccccc2)cc1	8.43 µM	IC50 (FFLUC_HILL_SLOPE 12.7, FFLUC_R_SQUARED 0.403, HEPG2TOX_HILL_SLOPE 1.43, HEPG2TOX_R_SQUARED 0.399, PBLUC_HILL_SLOPE 4.08, PBLUC_R_SQUARED 0.666, read-out: LUCIFERASE INFECTION ASSAY - IC50): 4.92 µM
CC(C)(C)c1ccc(-c2nc(-c3ccc(C(F)(F)F)cc3)cs2)cc1	> 9.13 µM	IC50 (FFLUC_HILL_SLOPE 12.9, FFLUC_R_SQUARED 0.362, PBLUC_HILL_SLOPE 0.825, PBLUC_R_SQUARED 0.291, read-out: LUCIFERASE INFECTION ASSAY - IC50): 3.25 µM
Cc1cccc(-c2noc(CNC(=O)Cc3ccc(-c4ccccc4)cc3)n2)c1	3.18 µM	IC50 (FFLUC_HILL_SLOPE 13.2, FFLUC_R_SQUARED 0.46, HEPG2TOX_HILL_SLOPE 2.91, HEPG2TOX_R_SQUARED 0.962, PBLUC_HILL_SLOPE 21.5, PBLUC_R_SQUARED 0.134, read-out: LUCIFERASE INFECTION ASSAY - IC50): 2.87 µM
CC(C)(C)c1nnc(Sc2ncc([N+](=O)[O-])s2)[nH]1	11.3 µM	IC50 (FFLUC_HILL_SLOPE 12.8, FFLUC_R_SQUARED 0.253, HEPG2TOX_HILL_SLOPE 7.13, HEPG2TOX_R_SQUARED 0.706, PBLUC_HILL_SLOPE 14.6, PBLUC_R_SQUARED 0.134, read-out: LUCIFERASE INFECTION ASSAY - IC50): 9.74 µM
Cc1ccc(C(c2cc(Cl)c3cccnc3c2O)N2CCCC2)cc1 (configuration not stated)	4.12 µM	IC50 (FFLUC_HILL_SLOPE 12.7, FFLUC_R_SQUARED 0.41, HEPG2TOX_HILL_SLOPE 6.94, HEPG2TOX_R_SQUARED 0.0505, PBLUC_HILL_SLOPE 13.5, PBLUC_R_SQUARED 0.562, read-out: LUCIFERASE INFECTION ASSAY - IC50): 3.5 µM
Cc1cc2occ(CC(=O)N(c3ccc(F)cc3)c3nc4ccccc4s3)c2cc1C(C)C	> 10 µM	IC50 (FFLUC_HILL_SLOPE 13, FFLUC_R_SQUARED 0.172, read-out: LUCIFERASE INFECTION ASSAY - IC50): > 10 µM
CCOC(=O)C1=C(C)NC(C)=C(C(=O)OCC)C1c1ccc(-c2cc(C(F)(F)F)cc(C(F)(F)F)c2)o1	> 6.21 µM	IC50 (FFLUC_HILL_SLOPE 13.3, FFLUC_R_SQUARED 0.16, read-out: LUCIFERASE INFECTION ASSAY - IC50): > 6.21 µM
N#CC(C(=O)c1ccccc1NC(=O)C(F)(F)F)c1nc(-c2ccc(Cl)cc2)cs1 (configuration not stated)	> 10 µM	IC50 (FFLUC_HILL_SLOPE 12.8, FFLUC_R_SQUARED 0.656, read-out: LUCIFERASE INFECTION ASSAY - IC50): > 10 µM
CCO/C=N/Nc1nc(C(F)(F)F)nc2c1cnn2-c1ccccc1	> 10 µM	IC50 (FFLUC_HILL_SLOPE 12.8, FFLUC_R_SQUARED 0.468, PBLUC_HILL_SLOPE 1.59, PBLUC_R_SQUARED 0.442, read-out: LUCIFERASE INFECTION ASSAY - IC50): 4.62 µM
O=S(=O)(/N=C(\N/N=C/c1ccc(Cl)cc1)N1CCCC1)c1ccc(-n2nc(C(F)(F)F)cc2-c2cccs2)cc1	> 5.44 µM	IC50 (FFLUC_HILL_SLOPE 13, FFLUC_R_SQUARED 0.6, read-out: LUCIFERASE INFECTION ASSAY - IC50): > 5.44 µM
N#C/C(=C\c1ccc(O)cc1)c1nc(C(c2ccccc2)c2ccccc2)no1	> 10 µM	IC50 (FFLUC_HILL_SLOPE 12.8, FFLUC_R_SQUARED 0.5, read-out: LUCIFERASE INFECTION ASSAY - IC50): > 10 µM
N#C/C(=N\Nc1cc(C(F)(F)F)cc(C(F)(F)F)c1)C(=O)c1ccco1	8.44 µM	IC50 (FFLUC_HILL_SLOPE 13.1, FFLUC_R_SQUARED 0.556, HEPG2TOX_HILL_SLOPE 1.19, HEPG2TOX_R_SQUARED 0.748, PBLUC_HILL_SLOPE 4.82, PBLUC_R_SQUARED 0.319, read-out: LUCIFERASE INFECTION ASSAY - IC50): 5.35 µM
N=C1C(=S)N(c2ccc(Cl)c(Cl)c2)C(=O)N1c1ccc(OC(F)(F)F)cc1	> 7.6 µM	IC50 (FFLUC_HILL_SLOPE 13.1, FFLUC_R_SQUARED 0.176, read-out: LUCIFERASE INFECTION ASSAY - IC50): > 7.6 µM
Cc1ccc2nc(SCC(=O)c3cc(C)n(-c4ccc5c(c4)OCCO5)c3C)[nH]c2c1	> 10 µM	IC50 (FFLUC_HILL_SLOPE 12.9, FFLUC_R_SQUARED 0.345, HEPG2TOX_HILL_SLOPE 0.403, HEPG2TOX_R_SQUARED 0.877, read-out: LUCIFERASE INFECTION ASSAY - IC50): > 10 µM

Reference: ChEMBL document CHEMBL4483862, “Open-source discovery of chemical leads for next-generation chemoprotective antimalarials” (2018)
